Source: patent US20060008891A1, “Cathepsin G-related peptides as modulators of formylpeptide receptors (FPR)” (The Government of USA as repersented by the Secretary, …, priority 2004, published 2006)
“Also recorded” adds a separate entry of the source.

What was measured:
monocytes = assay: Chemotaxis assay, monocytes; assay type: cell-based, human
Procedure: Human PBMC were isolated from leukopacks obtained through the courtesy of Transfusion Medicine Department, National Institutes of Health Clinical Center (Bethesda, Md.) by Ficoll-Hypaque density gradient centrifugation. Monocytes were purified from human PBMC by Percoll gradient to yield>90% pure preparations. […] H. Ali and R. Snyderman, Duke University (Durham, N.C.) and maintained in the presence of 0.8 mg/ml geneticin (G418, Life Technologies, Rockville, Md.) in DMEM supplemented with 10% FCS. B. Chemotaxis assay Migration of phagocytes and ETFR cells was assessed using a 48-well microchemotaxis chamber (Neuroprobe, Cabin John, Md.) as previously described (Hu et al. (2001) J Leukoc Biol 70 15512). Briefly, different concentrations of stimulants were placed in the wells of the lower compartment of the chamber, and 50 μl cells (1.5×10^6 cells/ml for monocyte and neutrophil, 1×10^6 ETFR cells/ml) were added to the wells of the upper compartment. The lower and upper compartments were separated by either a 5-μm (for monocyte) or a 10-μm pore size, collagen-coated (for ETFR cells) polycarbonate filter (Osmonics, Livermore, Calif.). After incubation at 37° C. in humidified air with 5% CO2 (60 min for neutrophils, 90 min for monocytes, 4.5 h for ETFR cells), the filter was removed and stained, and the cells migrating across the filter were counted with light microscopy. The results are presented as the mean number of cells (±SD) in three high power fields (HPFs). […] After thorough washing with cold medium (RPMI 1640, 1% BSA), the cells were resuspended and assayed. To measure the effect of various signaling inhibitors, unless otherwise indicated, the cells were pre-incubated at 37° C. for 60 min with the inhibitors, and were then added to the upper wells of the chemotaxis chamber.

neutrophils = assay: Chemotaxis assay, neutrophils; assay type: cell-based, human; details: human neutrophils
Procedure: (§1) Human PBMC were isolated from leukopacks obtained through the courtesy of Transfusion Medicine Department, National Institutes of Health Clinical Center (Bethesda, Md.) by Ficoll-Hypaque density gradient centrifugation. Monocytes were purified from human PBMC by Percoll gradient to yield>90% pure preparations. […] H. Ali and R. Snyderman, Duke University (Durham, N.C.) and maintained in the presence of 0.8 mg/ml geneticin (G418, Life Technologies, Rockville, Md.) in DMEM supplemented with 10% FCS. B. Chemotaxis assay Migration of phagocytes and ETFR cells was assessed using a 48-well microchemotaxis chamber (Neuroprobe, Cabin John, Md.) as previously described (Hu et al. (2001) J Leukoc Biol 70 15512). Briefly, different concentrations of stimulants were placed in the wells of the lower compartment of the chamber, and 50 μl cells (1.5×10^6 cells/ml for monocyte and neutrophil, 1×10^6 ETFR cells/ml) were added to the wells of the upper compartment. The lower and upper compartments were separated by either a 5-μm (for monocyte) or a 10-μm pore size, collagen-coated (for ETFR cells) polycarbonate filter (Osmonics, Livermore, Calif.). After incubation at 37° C. in humidified air with 5% CO2 (60 min for neutrophils, 90 min for monocytes, 4.5 h for ETFR cells), the filter was removed and stained, and the cells migrating across the filter were counted with light microscopy. The results are presented as the mean number of cells (±SD) in three high power fields (HPFs). For analysis of cross-desensitization, cells were pretreated with indicated reagents for 1 h at 37° C. After thorough washing with cold medium (RPMI 1640, 1% BSA), the cells were resuspended and assayed. To measure the effect of various signaling inhibitors, unless otherwise indicated, the cells were pre-incubated at 37° C. for 60 min with the inhibitors, and were then added to the upper wells of the chemotaxis chamber.

FPR [1] = target: T1, FPR (Homo sapiens, UniProt P21462); assay: Chemotaxis assay, RBL cells transfected with FPR (ETFR cells); assay type: cell-based; details: for inhibition of ETFR cell chemotaxis to CaG: CaG 10 μg/ml; for inhibition of ETFR cell chemotaxis to fMLF: fMLF 100 nM
T1 construct: expressed in transfected cells; host or cells: Rat basophilic leukemia (RBL) cells, stably transfected (ETFR cells); gift of H. Ali and R. Snyderman, Duke University
T1 sequence (P21462 1-350): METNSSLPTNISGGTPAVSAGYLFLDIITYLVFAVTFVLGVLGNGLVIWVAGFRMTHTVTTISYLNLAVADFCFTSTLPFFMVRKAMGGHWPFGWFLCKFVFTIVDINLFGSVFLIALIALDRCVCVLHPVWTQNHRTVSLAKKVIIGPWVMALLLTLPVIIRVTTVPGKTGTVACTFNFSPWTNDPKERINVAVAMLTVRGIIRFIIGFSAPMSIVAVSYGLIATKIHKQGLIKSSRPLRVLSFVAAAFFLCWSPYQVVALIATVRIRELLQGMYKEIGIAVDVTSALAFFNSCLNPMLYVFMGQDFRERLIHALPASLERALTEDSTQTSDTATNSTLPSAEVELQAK
Procedure: as §1

PKC isozymes = assay: PKC translocation in parental RBL cells; assay type: cell-based, rat; details: 100 nM fMLF, 10 μg/ml CaG or PMA 500 nM, 37° C. 10 min
PKCα/β = PKCα/β translocation in ETFR cells; assay type: cell-based, rat; details: 100 nM fMLF, 10 μg/ml CaG or PMA 500 nM, 37° C. 10 min
Procedure: (§2) ETFR cells were seeded on coverslips and cultured overnight in DMEM containing 1% FCS at 37° C. After further culture in FCS-free DMEM for 3 h, cells were treated with stimulants for indicated time periods at 37° C. and were then fixed in 4% paraformaldehyde for 5 min at room temperature. The cells were permeabilized with 0.2% Tween 20 for 30 min at 4° C. and the reaction was blocked with 5% goat normal serum for 15 min at room temperature. The rabbit anti-PKCα/β, δ, and ξ, antibodies (1:1000 in DPBS) were applied separately for 1 h at room temperature. After three rinses with DPBS, the cells were stained with FITC-labeled goat anti-rabbit secondary antibody (PharMingen, 1:1000 in DPBS) for 1 h at room temperature. The coverslips were mounted with an anti-fade, water-based mounting medium with Propidium Iodide (PI) (Vector Lab, Burlingamem, Calif.) and analyzed under a laser scanning confocal fluorescence microscope (Zeiss LSM510 NLO Meta, Jena, Germany). Excitation wavelengths 488 (for FITC) and 568 (for PI) nm were used to generate fluorescence emission in green and red, respectively.

PKCδ = PKCδ translocation in ETFR cells; assay type: cell-based, rat; details: 100 nM fMLF, 10 μg/ml CaG or PMA 500 nM, 37° C. 10 min
Procedure: as §2, with “The cells were permeabilized with 0.2% Tween 20 for 30 min at 4° C. and the reaction was blocked with 5% goat normal serum for 15 min at room temperature.” left out, “Germany).” for “Germany). Excitation wavelengths 488 (for FITC) and 568 (for PI) nm were used to generate fluorescence emission in green and red, respectively.”

PKCζ = PKCζ translocation in ETFR cells (confocal microscopy); assay type: cell-based, rat; details: 100 nM fMLF, 10 μg/ml CaG or PMA 500 nM, 37° C. 10 min
Procedure: as §2

FPR [2] = target: T1, FPR; assay: Chemotactic activity for ETFR cells after α1-ACT treatment of stimulants and supernatants; assay type: cell-based; details: α1-ACT 0.75 μM
Procedure: ETFR and RBL cells (10×10^6/ml) were incubated with medium or 10 μg/ml CaG at 37° C. for 1 h. Supernatants were collected and measured for chemotactic activity for un-treated ETFR cells.
as §1
Cleavage by proteases is required for regulation of the function of a number of molecules in triggering proper physiological processes. […] Therefore, we examined whether interaction of FPR with CaG might cleave FPR to generate a new defacto agonist for this receptor, such as in the model of thrombin activation of its receptors. ETFR cells were cultured with CaG under the conditions that are sufficient for cleavage of other proteins by CaG (Kinlough-Rathbone et al. (1999) Thromb Res 95, 31524). The supernatant was collected and examined for its chemotactic activity for FPR. […]

Question: How did the “inhibition of monocyte chemotaxis to CaG” value (monocytes; CaG 10 μg/ml) turn out when `C/C=C/C[C@@H](C)[C@@H](O)[C@H]1C(=O)N[C@@H](CC)C(=O)N(C)CC(=O)N(C)[C@@H](CC(C)C)C(=O)N[C@@H](C(C)C)C(=O)N(C)[C@@H](CC(C)C)C(=O)N[C@@H](C)C(=O)N[C@H](C)C(=O)N(C)[C@@H](CC(C)C)C(=O)N(C)[C@@H](CC(C)C)C(=O)N(C)[C@H](C(C)C)C(=O)N1C` [CsH, Cyclosporin H, reference compound] was run?
Answer: Its value is “abolished monocyte chemotaxis to CaG and fMLF”.

Question: What about the “inhibition of monocyte chemotaxis to fMLF” value (monocytes; fMLF 10 nM) of the same molecule?
Answer: The value was “abolished monocyte chemotaxis to CaG and fMLF”.

Question: With `CN(C)CCCn1cc(C2=C(c3c[nH]c4ccccc34)C(=O)NC2=O)c2ccccc21` [Gö 6850, bisindolylmaleimide I] as the molecule, how does the “inhibition of neutrophil chemotaxis to CaG” value (neutrophils) read?
Answer: Its value is “did not have any effect”.

Question: And the “inhibition of neutrophil chemotaxis to IL-8” value (neutrophils)?
Answer: Its value is “did not have any effect”.

Question: And the “inhibition of neutrophil chemotaxis to fMLF” value (neutrophils)?
Answer: Its value is “did not have any effect”.

Question: And the “inhibition of ETFR cell chemotaxis to CaG” value (FPR [1])?
Answer: The value was “limited effect on fMLF- and CaG-induced ETFR cell migration”.

Question: What about the “inhibition of ETFR cell chemotaxis to fMLF” value (FPR [1]) of the same molecule?
Answer: The value was “limited effect on fMLF- and CaG-induced ETFR cell migration”.

Question: For `CCCCCCCCCCCCCC(=O)O[C@@H]1[C@@H](C)[C@@]2(O)[C@@H](C=C(CO)C[C@]3(O)C(=O)C(C)=C[C@@H]23)[C@@H]2C(C)(C)[C@]12OC(C)=O` [PMA], which “PKC translocation in parental RBL cells” value (PKC isozymes) is on record?
Answer: Its value is “activated these PKC isozymes in both ETFR and RBL cells; also recorded: induced translocation of PKCζ, PKCα/β, and PKCδ in ETFR and RBL cells”.

Question: What about the “translocation of PKCα/β” value (PKCα/β) of the same molecule?
Answer: Its value is “activated these PKC isozymes in both ETFR and RBL cells; also recorded: induced translocation of PKCζ, PKCα/β, and PKCδ in ETFR and RBL cells”.

Question: What about the “translocation of PKCδ” value (PKCδ) of the same molecule?
Answer: Its value is “induced translocation of PKCζ, PKCα/β, and PKCδ in ETFR and RBL cells”.

Question: What about the “translocation of PKCζ” value (PKCζ) of the same molecule?
Answer: Its value is “activated these PKC isozymes in both ETFR and RBL cells; also recorded: induced translocation of PKCζ, PKCα/β, and PKCδ in ETFR and RBL cells”.

Question: Which results are given for `CN[C@@H]1C[C@H]2O[C@@](C)([C@@H]1OC)n1c3ccccc3c3c4c(c5c6ccccc6n2c5c31)C(=O)NC4` [Staurosporine, reference compound]?
Answer: inhibition of ETFR cell chemotaxis to CaG (FPR [1]): abrogated chemotaxis of ETFR cells induced by either CaG or fMLF; inhibition of ETFR cell chemotaxis to fMLF (FPR [1]): abrogated chemotaxis of ETFR cells induced by either CaG or fMLF

B1: α1-ACT: α1-antichymotrypsin, CaG inhibitor (protein, UniProt P01011 24-423, looked up)
Alpha-1-antichymotrypsin: HPNSPLDEENLTQENQDRGTHVDLGLASANVDFAFSLYKQLVLKAPDKNVIFSPLSISTALAFLSLGAHNTTLTEILKGLKFNLTETSEAEIHQSFQHLLRTLNQSSDELQLSMGNAMFVKEQLSLLDRFTEDAKRLYGSEAFATDFQDSAAAKKLINDYVKNGTRGKITDLIKDLDSQTMMVLVNYIFFKAKWEMPFDPQDTHQSRFYLSKKKWVMVPMMSLHHLTIPYFRDEELSCTVVELKYTGNASALFILPDQDKMEEVEAMLLPETLKRWRDSLEFREIGELYLPKFSISRDYNLNDILLQLGIEEAFTSKADLSGITGARNLAVSQVVHKAVLDVFEEGTEASAATAVKITLLSALVETRTIVRFNRPFLMIIVPTDTQNIFFMSKVTNPKQA
Question: How did the “effect on chemotactic activity of supernatant from CaG-digested ETFR cells” value (FPR [2]; 15 min room temperature) turn out when B1 was run?
Answer: The value was “completely abolished”.

Question: And the “effect on chemotactic activity of supernatants from CaG-treated RBL cells” value (FPR [2]; 15 min room temperature)?
Answer: The value was “inhibited by α1-ACT”.

Question: And the “effect on chemotactic activity of CaG” value (FPR [2]; CaG 10 μg/ml)?
Answer: Its value is “significantly reduced chemotactic activity”.

Question: What about the “effect on chemotactic activity of fMLF” value (FPR [2]; fMLF 100 nM) of the same molecule?
Answer: The value was “did not affect the chemotactic activity of fMLF for FPR”.
